Test [1] deals with T1, cathepsin K (Homo sapiens, UniProt P43235).
T1 sequence (P43235 115-329): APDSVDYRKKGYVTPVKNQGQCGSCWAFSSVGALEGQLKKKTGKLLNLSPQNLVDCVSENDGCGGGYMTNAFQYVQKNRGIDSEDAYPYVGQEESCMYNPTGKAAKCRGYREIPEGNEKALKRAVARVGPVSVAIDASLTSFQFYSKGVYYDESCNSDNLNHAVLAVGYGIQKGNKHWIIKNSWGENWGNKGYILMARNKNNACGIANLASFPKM
The experiment in a line: Determination of cathepsin K proteolytic catalytic activity / inhibition studies (progress curve method, Cbz-Phe-Arg-AMC). In kind it is biochemical. The settings on record: human recombinant enzyme, 100 mM Na acetate pH 5.5, 20 μM substrate, 10% DMSO. The method, then: Determination of Cathepsin K Proteolytic Catalytic Activity
All assays for cathepsin K were carried out with human recombinant enzyme. Standard assay conditions for the determination of kinetic constants used a fluorogenic peptide substrate, typically Cbz-Phe-Arg-AMC, and were determined in 100 mM Na acetate at pH 5.5 containing 20 mM cysteine and 5 mM EDTA. Stock substrate solutions were prepared at concentrations of 10 or 20 mM in DMSO with 20 μM final substrate concentration in the assays. All assays contained 10% DMSO. […] All assays were conducted at ambient temperature. Product fluorescence (excitation at 360 nm; emission at 460 nm) was monitored with a Perceptive Biosystems Cytofluor II fluorescent plate reader. […]
Potential inhibitors were evaluated using the progress curve method. […] For those compounds whose progress curves were linear, apparent inhibition constants (Ki,app) were calculated according to equation 1 (Brandt et al., Biochemitsry, 1989, 28, 140): […]
[AMC]=vsst+(v0−vss)[[…]]/kobs (2) where [AMC] is the concentration of product formed over time t, v0 is the initial reaction velocity, and vss is the final steady state rate. Values for kobs were then analyzed as a linear function of inhibitor concentration to generate an apparent second order rate constant (kobs/inhibitor concentration or kobs/[I]) describing the time-dependent inhibition. […]

Test [2] deals with osteoclasts (osteoclastoma-derived cell suspensions). The experiment in a line: Human osteoclast resorption assay (pit assay on dentine slices). In kind it is cell-based. As to conditions: 48 hours, pit volumes. The method, then:
Human Osteoclast Resorption Assay
Aliquots of osteoclastoma-derived cell suspensions were removed from liquid nitrogen storage, warmed rapidly at 37° C. and washed ×1 in RPMI-1640 medium by centrifugation (1000 rpm, 5 min at 4° C.). The medium was aspirated and replaced with murine anti-HLA-DR antibody, diluted 1:3 in RPMI-1640 medium, and incubated for 30 minutes on ice. The cell suspension was mixed frequently.
The cells were washed ×2 with cold RPMI-1640 by centrifugation (1000 rpm, 5 min at 4° C.) and then transferred to a sterile 15 mL centrifuge tube. The number of mononuclear cells were enumerated in an improved Neubauer counting chamber.
Sufficient magnetic beads (5/mononuclear cell), coated with goat anti-mouse IgG, were removed from their stock bottle and placed into 5 mL of fresh medium (this washes away the toxic azide preservative). The medium was removed by immobilizing the beads on a magnet and is replaced with fresh medium.
The beads were mixed with the cells and the suspension was incubated for 30 minutes on ice. The suspension was mixed frequently. […]
The TRAP positive osteoclasts were enumerated by bright-field microscopy and were then removed from the surface of the dentine by sonication. Pit volumes were determined using the Nikon/Lasertec ILM21W confocal microscope.

Structures are written as SMILES.

`CC(C)C[C@H](NC(=O)c1ccc2ccccc2n1)C(=O)NC1CCCN(S(=O)(=O)c2cccc[n+]2[O-])CC1=O` (stereo partly drawn) [Example 1, Quinoline-2-carboxylic acid {(S)-3-methyl-1-[3-oxo-1-(1-oxy-pyridine-2-sulfonyl)-azepan-4-ylcarbamoyl]-butyl}amide]: the Ki in test [1] worked out at 0.41 nM. The same compound yielded an IC50 in test [2] of 300 nM.

By Ki is commonly meant a measure of affinity in units of concentration, obtained from inhibition or displacement. As usually defined, the IC50 is the point on the concentration scale where inhibition reaches its midpoint.

Source of the values: patent US6534498B1, “Protease inhibitors” (SmithKline Beecham Corporation, priority 1999, dated 2003).
